Where “and” joins values, the source holds several entries; their conditions need not be identical. Identical values can stand only once.
Experiments:
Assay type in all cases: cell-based
SCD1 = target: T1, SCD1 (Homo sapiens, UniProt O00767); test: Growth inhibition of humanized yeast strain expressing SCD1 as sole desaturase; settings: humanized yeast strain expressing SCD1
T1 construct: host or cells: S. cerevisiae ole1Δ strain (W303 pdr1Δ pdr3Δ background), plasmid pRS316 with TDH3 promoter and CYC1 terminator
T1 sequence (O00767 1-359): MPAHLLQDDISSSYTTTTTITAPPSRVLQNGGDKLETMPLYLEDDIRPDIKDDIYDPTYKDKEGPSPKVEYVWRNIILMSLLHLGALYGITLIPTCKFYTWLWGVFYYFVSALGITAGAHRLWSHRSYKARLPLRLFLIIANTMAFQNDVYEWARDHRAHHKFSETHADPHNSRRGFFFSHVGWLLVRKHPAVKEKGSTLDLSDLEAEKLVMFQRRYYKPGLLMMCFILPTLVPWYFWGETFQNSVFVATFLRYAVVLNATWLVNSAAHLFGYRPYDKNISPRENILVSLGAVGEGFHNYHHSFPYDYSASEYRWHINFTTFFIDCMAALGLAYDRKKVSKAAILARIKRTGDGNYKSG
Outline: (§1)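 OD600 growth read-out. ole1Δ yeast, pdr1Δ pdr3Δ, with Ole1/SCD1/SCD5 on a plasmid; SX-Ura media throughout; 2× cell density 0.02 in CSM-Galactose; DMSO compound dilutions; humidified 30° C.; Ole1 stopped at 24 h, SCD1/SCD5 at 40 h.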

SCD5 = target: T2, SCD5 (Homo sapiens, UniProt Q86SK9); test: Growth inhibition of humanized yeast strain expressing SCD5 as sole desaturase; settings: humanized yeast strain expressing SCD5
T2 construct: host or cells: S. cerevisiae ole1Δ strain (W303 pdr1Δ pdr3Δ background), plasmid pRS316 with TDH3 promoter and CYC1 terminator
T2 sequence (Q86SK9 1-330): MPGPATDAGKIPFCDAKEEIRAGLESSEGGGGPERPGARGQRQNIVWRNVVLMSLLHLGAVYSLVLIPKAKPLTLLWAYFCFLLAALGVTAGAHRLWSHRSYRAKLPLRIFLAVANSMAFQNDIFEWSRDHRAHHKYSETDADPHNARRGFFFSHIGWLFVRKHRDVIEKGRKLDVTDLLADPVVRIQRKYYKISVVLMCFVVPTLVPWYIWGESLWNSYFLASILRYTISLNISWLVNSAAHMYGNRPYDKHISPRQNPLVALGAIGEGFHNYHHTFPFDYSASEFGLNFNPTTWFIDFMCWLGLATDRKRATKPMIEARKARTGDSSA
Outline: as §1

Ole1 = target: T3, Ole1 (Saccharomyces cerevisiae, UniProt P21147); test: Growth inhibition of yeast strain expressing Ole1 as sole desaturase; settings: yeast strain expressing Ole1 as sole desaturase
T3 construct: expressed in transfected cells; host or cells: S. cerevisiae ole1Δ strain (W303 pdr1Δ pdr3Δ background), plasmid pRS316 with TDH3 promoter and CYC1 terminator
T3 sequence (P21147 1-510): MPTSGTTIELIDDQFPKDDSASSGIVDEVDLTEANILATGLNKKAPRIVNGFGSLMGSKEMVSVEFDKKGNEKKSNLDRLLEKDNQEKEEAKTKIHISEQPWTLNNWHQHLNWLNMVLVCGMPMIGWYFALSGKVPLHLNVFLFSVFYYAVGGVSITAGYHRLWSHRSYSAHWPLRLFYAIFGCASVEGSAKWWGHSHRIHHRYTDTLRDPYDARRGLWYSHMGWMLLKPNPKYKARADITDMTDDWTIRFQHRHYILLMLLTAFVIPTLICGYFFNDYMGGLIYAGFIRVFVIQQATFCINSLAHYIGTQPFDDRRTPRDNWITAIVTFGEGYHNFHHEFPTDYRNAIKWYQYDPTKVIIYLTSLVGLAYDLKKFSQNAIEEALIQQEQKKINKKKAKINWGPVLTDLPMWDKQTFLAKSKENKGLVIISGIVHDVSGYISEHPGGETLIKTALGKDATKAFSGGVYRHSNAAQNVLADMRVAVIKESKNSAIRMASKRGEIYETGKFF
Outline: as §1

Compound | IC50 (SCD1) | SCD1 % Max Inhibition (SCD1) | IC50 (SCD5) | SCD5 % Max Inhibition (SCD5) | IC50 (Ole1) | OLE1 % Max Inhibition (Ole1)
Cc1nn(C)c2cc(-c3noc(N4CCN(C(=O)CN5Cc6ccccc6C5=O)CC4)n3)ccc12 [Compound 219] | > 45 µM | 95.22% | > 45 µM | 89.83% | > 45 µM | 3.50%
Cc1nn(C)c2cc(-c3nsc(C4CCN(C(=O)C5CC(=O)N(c6ccccc6)C5)CC4)n3)ccc12 (centres unmarked) [Compound 251] | > 45 µM | 83.15% | > 45 µM | 20.59% | > 45 µM | 7.80%
COc1ccc(-c2noc(C3CCN(C(=O)[C@@H](CO)NC(=O)c4ccccc4)CC3)n2)cc1OC [Compound 185] | > 45 µM | 97.91% | > 45 µM | 72.91% | > 45 µM | 93.51%
Cc1nn(C)c2cc(-c3noc(C4CCN(C(=O)[C@@H]5CC(=O)N(c6cccc(C#N)c6)C5)CC4)n3)ccc12 [Compound 306] | ≥ 45 µM | 67.6% and 63.32% | > 45 µM | – | > 45 µM | 33.2% and 36.88%
CCN(Cc1nc(-c2ccc(OC)c(OC)c2)no1)C(=O)Cc1cccc2ccccc12 [Compound 157] | > 45 µM | 80.54% | > 45 µM | 72.54% | > 45 µM | 91.55%
Cc1ccc(N2C[C@@H](C(=O)N3CCC(c4nc(-c5ccc6c(C)nn(C)c6c5)no4)CC3)CC2=O)nc1 [Compound 302] | 36.1 µM and ≥ 45 µM | 71.1% and 50.17% | > 45 µM | 9.4% and 10.64% | > 45 µM | 6.7% and 5.26%
Cc1nn(C)c2cc(-c3noc(C4CCN(C(=O)NC(C)(C)C)CC4)n3)ccc12 [Compound 282] | – | 90.54% | 28.9 µM | 56.23% | > 45 µM | 110.18%
CC(C)n1ncc2ccc(-c3noc(C4CCN(C(=O)CNC(=O)c5ccccc5)CC4)n3)cc21 [Compound 171] | 40.4 µM | 74.21% | > 45 µM | −0.14% | > 45 µM | 6.77%
Cc1nn(C)c2cc(-c3noc(C4CCN(C(=O)[C@@H](CO)NC(=O)c5ccccc5)CC4)n3)ccc12 [Compound 186] | > 45 µM | 86.16% | 30 µM | 73.51% | > 45 µM | 35.40%
CCOc1ccc(-c2noc(C3CCN(C(=O)[C@@H]4CN(c5ccccc5)C(=O)O4)CC3)n2)cc1OC [Compound 172] | > 45 µM | 89.39% | 41.1 µM | 68.80% | > 45 µM | 3.99%
Cc1nn(C)c2cc(-c3noc(C4(C)CCN(C(=O)CNC(=O)c5ccccc5)CC4)n3)ccc12 [Compound 227] | 38.3 µM | 63.76% | > 45 µM | 6.17% | > 45 µM | 1.24%
Cc1nn(C)c2cc(-c3noc(N4CCN(C(=O)c5ccccc5C(F)(F)F)CC4)n3)ccc12 [Compound 295] | – | 14.4% | > 45 µM | 9.2% | > 45 µM | 18.4%
Cc1nn(C)c2cc(-c3noc(C4CCN(C(=O)c5cccc(F)c5)CC4)n3)ccc12 [Compound 284] | – | 4.81% | > 45 µM | 6.80% | > 45 µM | 12.40%
